Read-outs that look alike come from different tables or passages of the source. Marks after values point to notes of the source that are not given here. Blank lines part the entries; values can stand above or below the molecule they belong to.
Legend:
HIV (LAV Strain) = assay: Antiviral activity in HIV-infected A301 (Alex) cells, reverse transcriptase level readout; format: cell-based; settings: Human immunodeficiency virus 1
Procedure: This procedure is a modification of a procedure initially described by Chen et al., Biochemical Pharmacology. 36 (24), 4361-4362 (1987).
(§1) A301 (Alex) cells are pre-infected with a constant amount of HIV (LAV Strain) for three hours at 37° C. Test compounds and AZT (control) are added to the infected cells in two, three or five-fold dilutions, out four places for screening and eight places for confirmation. Unless mentioned the highest concentration is […]. The test plates are incubated in C02 at 37` C for up to twelve days (incubation time depends on virus pool titer) with a partial medium/sample change midpoint through the incubation period. Uninfected A301 cells with sample dilutions, but without virus, are used to evaluate cytotoxicity.
Reverse transcriptase levels are assayed at the end of the incubation period as follows, to determine if antiviral activity is present.
[…] of medium from the HIV infected Alex cells is added to 10 mL of 3.2% Triton X-100. This solution is incubated for 30 minutes at 37° C, then 25 mL of 4X assay mix is added to it. The 4X assay mix contains [^3H]TTP, poly(A).oligo(dT), potassium chloride, magnesium chloride, dithiothreitol, and Tris-HCI buffer, pH8.0. […] The radioactivity remaining on the 3MM paper is quantitated by scintillation counter, and corresponds to reverse transcriptase level.

[1] = Cytotoxicity in uninfected A301 (Alex) cells; format: cell-based; settings: human, read-out: Cell Toxicity Partial
Procedure: as §1

Uninfected A301 cells = assay: Cytotoxicity in uninfected A301 (Alex) cells; format: cell-based
Procedure: as §1

HIV = settings: background statement on prior art; cited from earlier work
[2] = background statement on prior art; cited from earlier work
[3] = tested on: Granulocyte-Macrophage Colonies (CFU-GM); assay: CFU-GM assay (myeloid precursors), human hematopoietic cell toxicity; format: cell-based
Source text: (§2) This procedure is a modification of procedures initially described by Diainiak, et al., British Journal of Haematology, 69, 229-304 (1988), or as described by Sommadossi, et al., Agents and Chemotherapy, 31-(3), 452-454 (1987).
(§3) The effect of 4 -azidothymidine and AZT on the formation of erythroid and GM colonies from precursors in human peripheral blood and bone marrow were compared; from which the inhibition of 4 -azidothymidine and AZT against human hematopoietic cells were compared.
In each experiment peripheral blood or bone marrow from a single donor was used. Human peripheral blood mononuclear cells (PBL) were separated from heparinized blood of drug-free donors by density-gradient centrifugation in Ficoll (Pharmacia). Whole blood diluted 1:1 with Hanks' balanced salt solution (HBSS, Gibco) was layered on the top of Ficoll and centrifuged at 400 x g for 30 min. Cells were collected from the interphase and after washing, the concentration was adjusted to 2x10^6 cells/mL in RPMI-1640 medium with 25 mM Hepes buffer (Gibco). Monocytes were removed by adherence to plastic in large Petri dishes (150x15mm), adding 20 ml of the cell suspension/dish, and incubating for 1 hour at 37° C. Nonadherent mononuclear cells (MN) were removed by vigorous washing of the Petri dish with warm (37°C) HBSS.
Bone marrow aspirates from healthy donors were collected in heparizined syringes. The whole mononuclear cell fraction was separated by Ficoll-Paque density-gradient centrifugation (400 x g for 30 min). Cells collected from the interphase were washed 3 times in HBSS and resuspended in culture medium as described below for CFU-GM assay.
MN (1.5x10^6 cells/ml) and BM (1.x10^5 cells/ml) were cultured in complete medium as follows: Dulbecco's Modified Eagle Medium (DMEM, Gibco) supplemented with 20% heat-inactivated fetal calf serum (FCS, Hyclone), 2 mM L-glutamine, 5 x 10-^5 M 2-mercaptoethanol, penicillin (100 U/ml), streptomycin ([…]), and 0.3% bacto-agar (Difco). All supplements were from Gibco, unless otherwise specified. Cells were plated in 35x100 mm Lux Petri dishes (suspension dishes) in triplicate, and incubated at 37°C with 5% CO2 in air at 100% humidity. A supernatant from a T-cell line (GCT, Gibco), containing GM-Colony Stimlating Factor (GM-CSF), was used at a final concentration of 10% in complete medium. Tested compounds were added to the test dishes at concentrations of 10-^9 to 10-^4 M. Cells were incubated in air containing 5% CO2 (100% humidity) at 37°C for 14 days. Colonies were counted under a dissecting microscope. A CFU-GM colony was defined as a cluster of 50 or more cells consisting of granulocytes, monocyte-macrophages, or both.
All tests were performed in triplicate. The 50% inhibitory concentrations (ICso) for all types of colonies were determined using an RS 1 program on an IBM-PC.

[4] = tested on: Erythroid Colonies, CFU-E; assay: CFU-E assay (late erythroid precursors), human hematopoietic cell toxicity; format: cell-based
Source text: as §2, §3
In each experiment peripheral blood or bone marrow from a single donor was used. […]
MN were cultured at a concentration of 3 x 10^5 cells/ml. The culture medium consisted of Iscove's Modified Eagle Medium (Gibco) supplemented with 30% heat-inactiviated FCS (Hyclone), penicillin ([…]), streptomycin ([…]), 2-mercaptoethanol (1 x 10^-4, 1% deionized bovine serum albumin (BSA, Sigma), DEAE-Dextran 40 mg/ml (Pharmacia), 0.8% methylcellulose (4000 Centipose, Fisher), and erythropoietin 2 U/ml (Connaught Laboratories). Cells were plated in 96-well plates ([…]) and incubated at 37^*C with 5% C02 in air (100% humidity) for 7-14 days. CFU-E colonies were counted on Days 7-8. Clusters of 8 or more hemoglobinized cells were considered as a colony. BFU-E colonies were counted on Day 14. Aggregates of 50 or more cells were counted as a colony. […]

[5] = tested on: Friend leukemia virus complex (FLVC); format: in vivo, Balb/c mice; settings: daily dose 120 mg/kg i.p. for 9 days
Procedure: This procedure is a modification of a procedure initially described by Jones et al., Journal of Virology, 62 (2), 511-51,8 (1988), or by modifications thereof.
Friend leukemia virus complex (FLVC) was used. This retrovirus complex consists of both helper and defective virus particles.
Six week old female Balb/c mice from Bantin and Kingman, each weighing on the average of 18 gm, received 0.2ml of a solution (comprised of virus diluted in PBS containing 0.002 M EDTA) administered at 20 FFU/mouse, intravenously. Treatments began 4 hours after infection and continued for 9 days. AZT and 4'-azidothymidine were administered at 60 mg/kg/dose twice daily on Days 0, 4, and 5; and on Days 1-3 and 6-8 were administered 3 times daily at 40 mg/kg/dose. 2 3 -Dideoxycytidine was administered at 120 mg/kg/dose twice daily on days 0, 4, and 5; and on days 1-3 and 6-8 was administered 3 times daily at 80 mg/kg/dose. All treatments were given intraperitoneally, 0.5mi/dose. On day 9 after infection the spleens were removed, stained and fixed in Bouin's solution for 2 hours and then weighed. Foci were counted on spleens. A standard t-test was run to compare difference in spleen weights and difference in number of foci-forming units (FFU's) per spleen between groups.

SMILES: Cc1cn([C@H]2C[C@H](N=[N+]=[N-])[C@@H](CO)O2)c(=O)[nH]c1=O [3'-azidothymidine, reference compound]
EC50 (HIV (LAV Strain)): 0.01 µM
MCC [1]: 825 µM
Cell Toxicity Complete (Uninfected A301 cells): 3300 µM

SMILES: [N-]=[N+]=N[C@]1(CO)O[C@@H](n2ccc(N)nc2=O)[C@H](O)[C@@H]1O [4 -azidocytidine]
anti-HIV activity (HIV): devoid of anti-HIV activity
cytotoxicity [2]: cytotoxic

SMILES: Cc1cn([C@H]2C[C@H](O)[C@](CO)(N=[N+]=[N-])O2)c(=O)[nH]c1=O [Compound 1]
IC50 ([3]; bone marrow, experiment 1, read-out: IC50 BM 1): 21.1 µM
IC50 ([3]; bone marrow, experiment 2, read-out: IC50 BM 2): 13.6 µM
IC50 ([3]; peripheral blood mononuclear cells, five separate experiments, read-out: IC50 PBM Mean ±SE): 20.7 ± 1.73 µM
IC50 ([4]; PBM (3 experiments)): > 100 µM

EC50 (HIV (LAV Strain); A301 (Alex) cells pre-infected with HIV (LAV Strain), reverse transcriptase levels at end of incubation, read-out: EC50): 0.01 µM
SMILES: Cc1cn([C@H]2C[C@H](O)[C@](CO)(N=[N+]=[N-])O2)c(=O)[nH]c1=O [4'-azidothymidine]
MCC [1]: 8 µM
Cell Toxicity Complete (Uninfected A301 cells): 200 µM
IC50 ([3]; bone marrow, experiment 1, listed as 2, read-out: IC50 BM 1): 2.01 µM
IC50 ([3]; bone marrow, experiment 2, listed as 2, read-out: IC50 BM 2): 0.9 µM
IC50 ([3]; peripheral blood mononuclear cells, five separate experiments, listed as 2, read-out: IC50 PBM Mean ±SE): 4.83 ± 1.42 µM
IC50 ([4]; BM (1 experiment)): 27 µM
Inhibition of Splenomegaly [5]: 75%
FFU/Spleen ([5]; Day 9): ≥26 FFU/Spleen
Spleen Weight ([5]; weighed on Day 9 after infection): 0.190^d gm
